Read-outs that look alike come from different tables or passages of the source. Bridge positions count the residues as written; N and C are the ends. Square brackets hold non-standard residues; d marks the D form. Peptide text beside a SMILES is read from it. Cit = NC(=O)NCCC[C@H](N)C(=O)O
Molecular target: T1, LSD1 (Homo sapiens, UniProt O60341)
T1 construct: made in house; host or cells: Escherichia coli Rosetta 2 (pET15b)
Experiment: HRP-coupled fluorescence LSD1 demethylation activity and inhibition assay, substrate H3_1-21 K4(Me)
Type: biochemical
Conditions: for mode of inhibition: enzyme activity assay, inhibition kinetics; for Km: Tris buffer pH 8.0

[1] = 100 μM, supplement sheet SMILES and Activity, read-out: Inhibition at 100 μM (%)
[2] = read-out: % inhibition at 100 μM
[3] = supplement sheet SMILES and Activity, read-out: IC50

| inhibition at 100 µM [1] [%] | inhibition at 100 µM [2] [%] | Compound | IC50 [3] [µM] | also measured |
| --- | --- | --- | --- | --- |
| 95 | 95 | C=CC[C@H](NC(=O)[C@H](CCC(N)=O)NC(=O)[C@H](CCSC)NC(=O)[C@H](CC=C)NC(=O)[C@H](CCCNC(=N)N)NC(=O)[C@H](C)N)C(=O)N[C@@H](C)C(=O)N[C@@H](CCCNC(=N)N)C(=O)N[C@@H](CCCCN)C(=O)N[C@@H](CO)C(=O)N[C@H](C(N)=O)[C@@H](C)O [Peptide 20, ARG^alyMQG^alyARKST-NH2] |  |  |
|  | < 20 | CSCC[C@@H]1NC(=O)[C@H](NC(=O)[C@H](CCCNC(=N)N)NC(=O)[C@H](C)N)CCC(=O)NCCCC[C@@H](C(=O)N[C@@H](C)C(=O)N[C@@H](CCCNC(=N)N)C(=O)N[C@@H](CCCCN)C(=O)N[C@@H](CO)C(=O)N[C@H](C(N)=O)[C@@H](C)O)NC(=O)[C@H](CCC(N)=O)NC1=O (relative stereo) [Peptide 32] |  | Ki (read-out: Ki): > 100 µM |
| 100 | 90 | CSCC[C@@H]1NC(=O)[C@H](NC(=O)[C@H](CCCNC(=N)N)NC(=O)[C@H](C)N)CCC/C=C\CCC[C@H](C(=O)N[C@@H](C)C(=O)N[C@@H](CCCNC(=N)N)C(=O)N[C@@H](CCCCN)C(=O)N[C@@H](CO)C(=O)N[C@H](C(N)=O)[C@@H](C)O)NC(=O)[C@H](CCC(N)=O)NC1=O (relative stereo) [Peptide 26, AR*G^penMQ*G^penARKST-NH2] |  |  |
| 90 | 90 | CSCC[C@@H]1NC(=O)[C@@H](NC(=O)[C@H](CCCNC(=N)N)NC(=O)[C@@H]2CCCN2)CCCCNC(=O)CC[C@@H](C(=O)N[C@@H](C)C(=O)N[C@@H](CCCNC(=N)N)C(=O)N[C@@H](CCCCN)C(=O)N[C@@H](CO)C(=O)N[C@H](C(N)=O)[C@@H](C)O)NC(=O)[C@H](CCC(N)=O)NC1=O [Peptide 29] (H-PRKMQEARKST-NH2; lactam 3-6) | 14 | Ki (read-out: Ki): 7 µM |
| 75 | 75 | CSCC[C@@H]1NC(=O)[C@@H](NC(=O)[C@H](CCCNC(=N)N)NC(=O)[C@H](C)N)CCC/C=C\CCC[C@@H](C(=O)N[C@@H](C)C(=O)N[C@@H](CCCNC(=N)N)C(=O)N[C@@H](CCCCN)C(=O)N[C@@H](CO)C(=O)N[C@H](C(N)=O)[C@@H](C)O)NC(=O)[C@H](CCC(N)=O)NC1=O [Peptide 23, ARG^penMQG^penARKST-NH2] |  |  |
| 100 | 100 | C=CCCC[C@H](NC(=O)[C@H](CCC(N)=O)NC(=O)[C@H](CCSC)NC(=O)[C@H](CCCC=C)NC(=O)[C@H](CCCNC(=N)N)NC(=O)[C@H](C)N)C(=O)N[C@@H](C)C(=O)N[C@@H](CCCNC(=N)N)C(=O)N[C@@H](CCCCN)C(=O)N[C@@H](CO)C(=O)N[C@H](C(N)=O)[C@@H](C)O [Peptide 22, ARG^penMQG^penARKST-NH2] |  |  |
| 75 | 75 | CSCC[C@@H]1NC(=O)[C@@H](NC(=O)[C@H](CCCNC(=N)N)NC(=O)[C@@H]2CCCN2)CCC(=O)NCCCC[C@@H](C(=O)N[C@@H](C)C(=O)N[C@@H](CCCNC(=N)N)C(=O)N[C@@H](CCCCN)C(=O)N[C@@H](CO)C(=O)N[C@H](C(N)=O)[C@@H](C)O)NC(=O)[C@H](CCC(N)=O)NC1=O [Peptide 30] (H-PREMQKARKST-NH2; lactam 3-6) | 44 | Ki (read-out: Ki): 22 µM |
| 100 | 100 | CSCC[C@H](NC(=O)[C@@H]1C/C=C\C[C@H](N)C(=O)N[C@@H](CCCNC(=N)N)C(=O)N1)C(=O)N[C@@H](CCC(N)=O)C(=O)N[C@H](C(=O)N[C@@H](C)C(=O)N[C@@H](CCCNC(=N)N)C(=O)N[C@@H](CCCCN)C(=O)N[C@@H](CO)C(=O)N[C@H](C(N)=O)[C@@H](C)O)[C@@H](C)O [Peptide 19] |  |  |
|  |  | H3_1-21 K4(Me): N-terminal 21 amino acids of histone H3, mono-N-methylated at Lys4; LSD1 substrate [reference compound] |  | kcat (substrate of LSD1, 50 mM NaCl): 0.6 s^–1; Km (substrate of LSD1, 50 mM NaCl): 20 µM; Km (substrate of LSD1, 150 mM NaCl): 80 µM; Km (substrate of LSD1, without added NaCl): 10 µM |
| 95 | 95 | CSCC[C@@H]1NC(=O)[C@@H](NC(=O)[C@H](CCCNC(=N)N)NC(=O)[C@H](C)N)CCC/C=C\CCC[C@H](C(=O)N[C@@H](C)C(=O)N[C@@H](CCCNC(=N)N)C(=O)N[C@@H](CCCCN)C(=O)N[C@@H](CO)C(=O)N[C@H](C(N)=O)[C@@H](C)O)NC(=O)[C@H](CCC(N)=O)NC1=O [Peptide 25, ARG^penMQ*G^penARKST-NH2] |  |  |
| 95 | 95 | CSCC[C@@H]1NC(=O)[C@H](NC(=O)[C@H](CCCNC(=N)N)NC(=O)[C@H](C)N)CCC/C=C\CCC[C@@H](C(=O)N[C@@H](C)C(=O)N[C@@H](CCCNC(=N)N)C(=O)N[C@@H](CCCCN)C(=O)N[C@@H](CO)C(=O)N[C@H](C(N)=O)[C@@H](C)O)NC(=O)[C@H](CCC(N)=O)NC1=O (relative stereo) [Peptide 24, AR*G^penMQG^penARKST-NH2] |  | mode of inhibition: competitive inhibitor |
| 65 | 65 | CSCC[C@@H]1NC(=O)[C@@H](NC(=O)[C@H](CCCNC(=N)N)NC(=O)[C@H](C)N)CCCCNC(=O)CC[C@@H](C(=O)N[C@@H](C)C(=O)N[C@@H](CCCNC(=N)N)C(=O)N[C@@H](CCCCN)C(=O)N[C@@H](CO)C(=O)N[C@H](C(N)=O)[C@@H](C)O)NC(=O)[C@H](CCC(N)=O)NC1=O [Peptide 27] | 62 | Ki (read-out: Ki): 31 µM |

| Compound | inhibition at 100 µM [1] [%] | inhibition at 100 µM [2] [%] | IC50 [3] [µM] | also measured |
| --- | --- | --- | --- | --- |
| CSCC[C@@H]1NC(=O)[C@@H](NC(=O)[C@H](CCCNC(=N)N)NC(=O)[C@H](C)N)CCC(=O)NCCCC[C@@H](C(=O)N[C@@H](C)C(=O)N[C@@H](CCCNC(=N)N)C(=O)N[C@@H](CCCCN)C(=O)N[C@@H](CO)C(=O)N[C@H](C(N)=O)[C@@H](C)O)NC(=O)[C@H](CCC(N)=O)NC1=O [Peptide 28] | 98 | 98 | 12 | Ki: 4 µM; mode of inhibition: competitive inhibitor |
| CSCC[C@@H]1NC(=O)[C@H](NC(=O)[C@H](CCCNC(=N)N)NC(=O)[C@H](C)N)CCCCNC(=O)CC[C@@H](C(=O)N[C@@H](C)C(=O)N[C@@H](CCCNC(=N)N)C(=O)N[C@@H](CCCCN)C(=O)N[C@@H](CO)C(=O)N[C@H](C(N)=O)[C@@H](C)O)NC(=O)[C@H](CCC(N)=O)NC1=O (relative stereo) [Peptide 31] | 100 | 100 | 5.3 | Ki: 2.3 µM; mode of inhibition: competitive inhibitor |
| CSCC[C@@H]1NC(=O)[C@@H](NC(=O)[C@H](CCCNC(=N)N)NC(=O)[C@H](C)N)CCC(=O)NCCCC[C@@H](C(=O)N[C@@H](C)C(=O)N[C@@H](CCCNC(N)=O)C(=O)N[C@@H](CCCCN)C(=O)N[C@@H](CO)C(=O)N[C@H](C(N)=O)[C@@H](C)O)NC(=O)[C@H](CCC(N)=O)NC1=O [Peptide 34] (H-AREMQKA[Cit]KST-NH2; lactam 3-6) | 97 | 97 | 14 | Ki: 8 µM |
| C=CC[C@H](NC(=O)[C@H](CCCNC(=N)N)NC(=O)[C@@H](N)CC=C)C(=O)N[C@@H](CCSC)C(=O)N[C@@H](CCC(N)=O)C(=O)N[C@H](C(=O)N[C@@H](C)C(=O)N[C@@H](CCCNC(=N)N)C(=O)N[C@@H](CCCCN)C(=O)N[C@@H](CO)C(=O)N[C@H](C(N)=O)[C@@H](C)O)[C@@H](C)O [Peptide 18] | 98 | 98 |  | IC50: 5 µM |

From PMC7057333 (ACS Omega, 2020)
